Data published in publication PMC9910440, “NADP(H)-dependent biocatalysis without adding NADP(H)” (Proceedings of the National Academy of Sciences of the …, 2022).

How the values were obtained:
[1] = biological target: T1, IDH1 (isocitrate dehydrogenase 1) (Homo sapiens, UniProt O75874); assay: 1H NMR of cofactor released by thermal denaturation; native MS; electrochemical retention; format: binding; settings: copurified; resting state, no substrate; part of a NADP+/NADPH mixture
T1 construct: recombinant, purified; copurifies with NADP(H)
T1 sequence (O75874 whole entry): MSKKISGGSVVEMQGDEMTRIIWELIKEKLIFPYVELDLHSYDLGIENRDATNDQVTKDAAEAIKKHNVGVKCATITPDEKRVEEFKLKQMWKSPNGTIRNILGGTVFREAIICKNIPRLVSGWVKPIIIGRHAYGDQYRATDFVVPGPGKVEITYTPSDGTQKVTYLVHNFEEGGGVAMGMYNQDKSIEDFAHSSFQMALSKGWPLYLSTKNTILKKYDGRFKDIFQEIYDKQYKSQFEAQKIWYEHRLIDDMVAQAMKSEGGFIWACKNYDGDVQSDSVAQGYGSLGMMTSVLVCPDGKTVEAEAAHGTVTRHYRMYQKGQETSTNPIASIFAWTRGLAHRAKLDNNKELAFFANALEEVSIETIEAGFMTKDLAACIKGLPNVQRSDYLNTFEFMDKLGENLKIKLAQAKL

[2] = biological target: T2, IDH1 (isocitrate dehydrogenase 1) (Homo sapiens, UniProt O75874, R132H); assay: non-denaturing mass spectrometry; 1H NMR after denaturation; format: binding; settings: copurified; NMR identifies NADPH only; resting state, no substrate
T2 construct: recombinant, purified; copurifies with NADP(H)
T2 sequence (O75874 whole entry R132H): as the sequence (O75874 whole entry) above, with R132H counted along it

[3] = biological target: T2, IDH1 (isocitrate dehydrogenase 1); assay: electrochemical retention after buffer exchange and potential switch; format: biochemical; settings: nanoconfined with FNR; resting state; binds much less tightly than NADPH; pH 8, 10 mM MgCl2
[4] = biological target: T3, Ferredoxin NADP+ reductase (FNR) (Chlamydomonas reinhardtii, UniProt P53991); assay: 1H NMR of cofactor released by denaturation; format: binding; settings: prosthetic group
T3 construct: gene PETH; recombinant, purified; 39 kDa; FAD flavoprotein
T3 sequence (P53991 36-354): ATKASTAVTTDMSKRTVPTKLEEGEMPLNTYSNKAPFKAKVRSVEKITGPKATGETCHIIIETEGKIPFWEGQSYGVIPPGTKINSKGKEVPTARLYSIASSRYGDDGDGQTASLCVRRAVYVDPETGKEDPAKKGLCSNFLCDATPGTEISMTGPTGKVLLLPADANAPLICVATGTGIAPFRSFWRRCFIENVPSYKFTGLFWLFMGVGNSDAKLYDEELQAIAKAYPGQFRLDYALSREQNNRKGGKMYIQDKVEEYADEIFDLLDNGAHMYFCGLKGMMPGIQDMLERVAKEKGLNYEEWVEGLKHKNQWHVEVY

NC(=O)C1=CN([C@@H]2O[C@H](COP(=O)(O)OP(=O)(O)OC[C@H]3O[C@@H](n4cnc5c(N)ncnc54)[C@H](OP(=O)(O)O)[C@@H]3O)[C@@H](O)[C@H]2O)C=CC1 [NADPH]
1H NMR of cofactor released by thermal denaturation; native MS; electrochemical [1]: wild-type IDH1 (Fig. 1A) copurified with a mixture of NADP^+ and NADPH bound
NADP(H) active site occupancy [2]: ~ 97.5%

NC(=O)c1ccc[n+]([C@@H]2O[C@H](COP(=O)(O)OP(=O)(O)OC[C@H]3O[C@@H](n4cnc5c(N)ncnc54)[C@H](OP(=O)(O)O)[C@@H]3O)[C@@H](O)[C@H]2O)c1 [NADP^+]
1H NMR of cofactor released by thermal denaturation; native MS; electrochemical [1]: wild-type IDH1 (Fig. 1A) copurified with a mixture of NADP^+ and NADPH bound
electrochemical retention after buffer exchange and potential switch [3]: IDH1 R132H binds NADP^+ much less tightly than NADPH

Cc1cc2nc3c(=O)[nH]c(=O)nc-3n(C[C@H](O)[C@H](O)[C@H](O)COP(=O)(O)OP(=O)(O)OC[C@H]3O[C@@H](n4cnc5c(N)ncnc54)[C@H](O)[C@@H]3O)c2cc1C [flavin adenine dinucleotide]
1H NMR of cofactor released by denaturation [4]: release of its prosthetic group, flavin adenine dinucleotide (FAD), upon denaturation
